# Molecular target: T1, HPK1 (Homo sapiens, UniProt Q92918)
# T1 construct: purchased SignalChem M23-11G
# T1 sequence (Q92918 1-346 limits assumed): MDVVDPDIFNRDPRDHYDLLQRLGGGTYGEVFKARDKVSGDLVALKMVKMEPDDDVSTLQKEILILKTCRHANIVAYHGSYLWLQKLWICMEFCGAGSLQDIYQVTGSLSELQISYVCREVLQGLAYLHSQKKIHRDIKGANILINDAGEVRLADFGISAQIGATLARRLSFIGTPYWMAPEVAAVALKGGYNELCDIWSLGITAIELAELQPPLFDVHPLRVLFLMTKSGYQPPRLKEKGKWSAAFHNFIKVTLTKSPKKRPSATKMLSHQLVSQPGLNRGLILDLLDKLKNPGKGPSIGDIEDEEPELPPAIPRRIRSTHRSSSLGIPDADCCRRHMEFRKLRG
# Assay: HPK1 Kinase Binding Assay
# Details: LanthaScreen tracer 222, one hour incubation at 25 °C
# Experimental: A stock solution of 1 mM test compound was prepared in DMSO. The compound plate was prepared by 3-fold and 11-point serial dilutions. 0.1 µL of the compound in DMSO was transferred from the compound plate to the white 384 well polystyrene plates. The assay buffer contained 50 mM HEPES, pH 7.5, 0.01% Tween-20, 5 mM MgCl2, 0.01% BSA, and 5 mM DTT. 5 µL of 4 nM active HPK1 (SignalChem M23-11G) prepared in the buffer was added to the plate. The enzyme concentration given was based on the given stock concentration reported by the vender. […] After one hour incubation at 25 °C, the plates were read on a PHERAstar FS plate reader (BMG Labtech). Ki values were determined.
row,SMILES,Ki [nM]
1,"COc1cccc(F)c1-c1nccc(C(=O)Nc2ccc(-c3ccncc3C#N)cc2N2C[C@@H](N)C[C@H]2CO)n1 [Example 41, N-(2-((2S,4S)-4-Amino-2-(hydroxymethyl)pyrrolidin-1-yl)-4-(3-cyanopyridin-4-yl)phenyl)-2-(2-fluoro-6-methoxyphenyl)pyrimidine-4-carboxamide]",< 100
2,"COc1cccc(F)c1-c1nccc(C(=O)Nc2cc(F)ccc2N2C[C@@H](N(C)C)C[C@H]2CO)n1 [Example 88, N-(2-((2S,4S)-4-(Dimethylamino)-2-(hydroxymethyl)pyrrolidin-1-yl)-5-fluorophenyl)-2-(2-fluoro-6-methoxyphenyl)pyrimidine-4-carboxamide]",< 100
3,"COc1cccc(F)c1-c1nc(C(=O)Nc2ccc(-c3cnccc3C#N)cc2N2C[C@@H](N)C[C@H]2CO)ccc1C#N [Example 60, N-(2-((2S,4S)-4-Amino-2-(hydroxymethyl)pyrrolidin-1-yl)-4-(4-cyanopyridin-3-yl)phenyl)-5-cyano-6-(2-fluoro-6-methoxyphenyl)picolinamide]",< 100
4,"COc1cccc(F)c1-c1nccc(C(=O)Nc2ccc(-c3cnccc3C#N)cc2N2CC[C@H]2CO)n1 [Example 106, (S)-N-(4-(4-Cyanopyridin-3-yl)-2-(2-(hydroxymethyl)azetidin-1-yl)phenyl)-2-(2-fluoro-6-methoxyphenyl)pyrimidine-4-carboxamide]",< 100
5,"N#Cc1ccncc1-c1ccc(NC(=O)c2ccnc(-c3c(F)cccc3C3CC3)n2)c(N2C[C@@H](N)C[C@H]2CO)c1 [Example 97, N-(2-((2S,4S)-4-Amino-2-(hydroxymethyl)pyrrolidin-1-yl)-4-(4-cyanopyridin-3-yl)phenyl)-2-(2-cyclopropyl-6-fluorophenyl)pyrimidine-4-carboxamide]",< 100
6,"COc1cccc(F)c1-c1nccc(C(=O)Nc2ccc(-c3cnccc3C#N)cc2N2CCO[C@@H](CN(C)C)C2)n1 [Example 101, (S)-N-(4-(4-Cyanopyridin-3-yl)-2-(2-((dimethylamino)methyl)morpholino)phenyl)-2-(2-fluoro-6-methoxyphenyl)pyrimidine-4-carboxamide]",< 100
7,"COc1cccc(F)c1-c1nccc(C(=O)Nc2cc(C#N)ccc2N2C[C@H]3C[C@@H]2CN3)n1 [Example 37, N-(2-((1R,4R)-2,5-Diazabicyclo[2.2.1]heptan-2-yl)-5-cyanophenyl)-2-(2-fluoro-6-methoxyphenyl)pyrimidine-4-carboxamide]",100 to 500
8,"COc1cccc(F)c1-c1nccc(C(=O)Nc2cc(F)ccc2N2CCC[C@@H]2CO)n1 [Example 4, (R)-N-(5-Fluoro-2-(2-(hydroxymethyl)pyrrolidin-1-yl)phenyl)-2-(2-fluoro-6-methoxyphenyl)pyrimidine-4-carboxamide]",< 100
9,"COc1cccc(F)c1-c1nccc(C(=O)Nc2ccc(-c3cnccc3C#N)cc2N2C[C@@H](C)NC[C@H]2CO)n1 [Example 50, N-(4-(4-Cyanopyridin-3-yl)-2-((2S,5R)-2-(hydroxymethyl)-5-methylpiperazin-1-yl)phenyl)-2-(2-fluoro-6-methoxyphenyl)pyrimidine-4-carboxamide]",< 100
10,"COc1cccc(F)c1-c1nccc(C(=O)Nc2cc(C)ccc2N2C[C@@H](N)C[C@H]2CO)n1 [Example 87, N-(2-((2S,4S)-4-Amino-2-(hydroxymethyl)pyrrolidin-1-yl)-5-methylphenyl)-2-(2-fluoro-6-methoxyphenyl)pyrimidine-4-carboxamide]",< 100
11,"COc1cccc(F)c1-c1nccc(C(=O)Nc2ccc(Cl)cc2N2C[C@@H](N)C[C@H]2CO)n1 [Example 91, N-(2-((2S,4S)-4-Amino-2-(hydroxymethyl)pyrrolidin-1-yl)-4-chlorophenyl)-2-(2-fluoro-6-methoxyphenyl)pyrimidine-4-carboxamide]",< 100
12,"COc1cccc(F)c1-c1nccc(C(=O)Nc2ccc(-c3cnccc3C#N)cc2N2CCO[C@H](CO)C2)n1 [Example 100, (S)-N-(4-(4-Cyanopyridin-3-yl)-2-(2-(hydroxymethyl)morpholino)phenyl)-2-(2-fluoro-6-methoxyphenyl)pyrimidine-4-carboxamide]",< 100
13,"COc1ccc(C#N)c(F)c1-c1nccc(C(=O)Nc2cc(F)ccc2N2C[C@@H](N)C[C@H]2CO)n1 [Example 67, N-(2-((2S,4S)-4-Amino-2-(hydroxymethyl)pyrrolidin-1-yl)-5-fluorophenyl)-2-(3-cyano-2-fluoro-6-methoxyphenyl)pyrimidine-4-carboxamide]",< 100
14,COc1cccc(F)c1-c1nccc(C(=O)Nc2cc(F)ccc2N2CCNC[C@H]2C)n1 [Example 10],< 100
15,"COc1cccc(F)c1-c1nccc(C(=O)Nc2cc(F)cc(-c3cnn(C)c3)c2N2C[C@H]3C[C@@H]2CN3)n1 [Example 16, N-(2-((1R,4R)-2,5-Diazabicyclo[2.2.1]heptan-2-yl)-5-fluoro-3-(1-methyl-1H pyrazol-4-yl)phenyl)-2-(2-fluoro-6-methoxyphenyl)pyrimidine-4-carboxamide]",< 100
16,"CCOc1cccc(F)c1-c1nccc(C(=O)Nc2ccc(-c3cnccc3C#N)cc2N2C[C@@H](N)C[C@H]2CO)n1 [Example 98, N-(2-((2S,4S)-4-Amino-2-(hydroxymethyl)pyrrolidin-1-yl)-4-(4-cyanopyridin-3-yl)phenyl)-2-(2-ethoxy-6-fluorophenyl)pyrimidine-4-carboxamide]",< 100
17,"COc1cccc(F)c1-c1nccc(C(=O)Nc2cccc(C#N)c2N2C[C@H]3C[C@@H]2CN3)n1 [Example 14, N-(2-((1R,4R)-2,5-Diazabicyclo[2.2.1]heptan-2-yl)-3-cyanophenyl)-2-(2-fluoro-6-methoxyphenyl)pyrimidine-4-carboxamide]",< 100
18,"COc1cnccc1-c1ccc(NC(=O)c2ccnc(-c3c(F)cccc3OC)n2)c(N2C[C@@H](N)C[C@H]2CO)c1 [Example 44, N-(2-((2S,4S)-4-Amino-2-(hydroxymethyl)pyrrolidin-1-yl)-4-(3-methoxypyridin-4-yl)phenyl)-2-(2-fluoro-6-methoxyphenyl)pyrimidine-4-carboxamide]",< 100
19,"COc1cccc(F)c1-c1nccc(C(=O)Nc2ccccc2C2CCCC(N)C2)n1 (stereo not drawn) [Example 80, N-(2-(3-Aminocyclohexyl)phenyl)-2-(2-fluoro-6-methoxyphenyl)pyrimidine-4-carboxamide]",< 100
20,"N#CC1(c2ccc(NC(=O)c3ccnc(-c4c(F)cccc4F)n3)c(N3C[C@@H](N)C[C@H]3CO)c2)CC1 [Example 94, N-(2-((2S,4S)-4-Amino-2-(hydroxymethyl)pyrrolidin-1-yl)-4-(1-cyanocyclopropyl)phenyl)-2-(2,6-difluorophenyl)pyrimidine-4-carboxamide]",< 100
21,"COC[C@@H]1CCN1c1ccc(NC(=O)c2ccnc(-c3c(F)cccc3OC)n2)c(N2C[C@@H]3C[C@H]2CN3)c1 [Example 39, N-(2-((1S,4S)-2,5-Diazabicyclo[2.2.1]heptan-2-yl)-4-((S)-2-(methoxymethyl)azetidin-1-yl)phenyl)-2-(2-fluoro-6-methoxyphenyl)pyrimidine-4-carboxamide]",< 100
22,"COc1cccc(F)c1-c1nccc(C(=O)Nc2ccc(-c3cnccc3C#N)cc2N2CC[C@H](N)C[C@@H]2C)n1 [Example 58, N-(2-((2S,4S)-4-Amino-2-methylpiperidin-1-yl)-4-(4-cyanopyridin-3-yl)phenyl)-2-(2-fluoro-6-methoxyphenyl)pyrimidine-4-carboxamide]",< 100
23,"COc1cccc(F)c1-c1nccc(C(=O)Nc2cc(F)ccc2N2C[C@@H](NC(C)C)C[C@H]2CO)n1 [Example 89, N-(5-Fluoro-2-((2S,4S)-2-(hydroxymethyl)-4-(isopropylamino)pyrrolidin-1-yl)phenyl)-2-(2-fluoro-6-methoxyphenyl)pyrimidine-4-carboxamide]",< 100
24,"COc1cccc(F)c1-c1nccc(C(=O)Nc2ccc(-c3c(C)nn(C)c3C)nc2N2C[C@@H](N)C[C@H]2CO)n1 [Example 65, N-(2-((2S,4S)-4-Amino-2-(hydroxymethyl)pyrrolidin-1-yl)-6-(1,3,5-trimethyl-1H-pyrazol-4-yl)pyridin-3-yl)-2-(2-fluoro-6-methoxyphenyl)pyrimidine-4-carboxamide]",< 100
25,"COc1cccc(F)c1-c1nccc(C(=O)Nc2cc(F)c(CO)cc2N2C[C@@H]3C[C@H]2CN3)n1 [Example 17, N-(2-((1S,4S)-2,5-Diazabicyclo[2.2.1]heptan-2-yl)-5-fluoro-4-(hydroxymethyl)phenyl)-2-(2-fluoro-6-methoxyphenyl)pyrimidine-4-carboxamide]",< 100
26,"COc1cccc(F)c1-c1nccc(C(=O)Nc2ccc(F)cc2N2C[C@@H](N)C[C@H]2CO)n1 [Example 92, N-(2-((2S,4S)-4-Amino-2-(hydroxymethyl)pyrrolidin-1-yl)-4-fluorophenyl)-2-(2-fluoro-6-methoxyphenyl)pyrimidine-4-carboxamide]",< 100
27,"COc1ccc(F)c(F)c1-c1nccc(C(=O)Nc2cc(F)ccc2N2C[C@@H](N)C[C@H]2CO)n1 [Example 68, N-(2-((2S,4S)-4-Amino-2-(hydroxymethyl)pyrrolidin-1-yl)-5-fluorophenyl)-2-(2,3-difluoro-6-methoxyphenyl)pyrimidine-4-carboxamide]",< 100

# From EP3755703B1, “N-(PHENYL)-2-(PHENYL)PYRIMIDINE-4-CARBOXAMIDE DERIVATIVES AND RELATED COMPOUNDS AS HPK1 INHIBITORS FOR TREATING CANCER” (Incyte Corporation, priority 2018, dated 2019)
